Measured values as given in publication PMC8719450 (Xenobiotica; the fate of foreign compounds in biological …, 2021).
Like-named read-outs stand apart in the source and are kept apart here. One block for each compound: values may come before it.

What was measured:
[1] = biological target: T1, CYP2A6 (Homo sapiens, UniProt P11509); settings: 20 min, 60 μM
T1 sequence (P11509 1-494): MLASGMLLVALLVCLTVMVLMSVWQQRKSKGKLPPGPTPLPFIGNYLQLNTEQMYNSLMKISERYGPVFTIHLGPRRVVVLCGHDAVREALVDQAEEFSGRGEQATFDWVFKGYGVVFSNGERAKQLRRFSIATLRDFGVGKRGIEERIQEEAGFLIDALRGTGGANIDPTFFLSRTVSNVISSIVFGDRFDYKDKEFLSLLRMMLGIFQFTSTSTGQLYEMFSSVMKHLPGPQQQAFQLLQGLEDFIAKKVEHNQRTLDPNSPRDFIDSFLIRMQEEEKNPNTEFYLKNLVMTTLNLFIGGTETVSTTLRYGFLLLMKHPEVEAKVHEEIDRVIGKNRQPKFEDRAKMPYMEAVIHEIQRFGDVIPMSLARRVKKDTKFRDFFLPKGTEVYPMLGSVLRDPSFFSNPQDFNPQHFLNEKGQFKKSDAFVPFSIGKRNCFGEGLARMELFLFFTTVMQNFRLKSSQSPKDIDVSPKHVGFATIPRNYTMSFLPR

[2] = assay type: in vitro ADME; settings: human, human liver microsomes (sample HH54), probe flavone (60 µM), formation of diOHFM4 (3´4´diOHF)
[3] = test system: sample HH47 liver microsomes; assay type: in vitro ADME, human; settings: substrate flavone 60 μM, inhibitor 10 μM
[4] = biological target: CYP2C9 (Homo sapiens, UniProt P11712); assay: Oxidation of flavonoids by reconstituted recombinant P450, LC-MS/MS; assay type: in vitro ADME
[5] = guinea pigs, oral 30 mg of flavone, ref Das and Griffiths (1966), cited from earlier work
[6] = biological target: CYP3A4 (Homo sapiens, UniProt P08684); assay: Oxidation of flavonoids by reconstituted recombinant P450, LC-MS/MS; assay type: in vitro ADME
[7] = biological target: T2, CYP2B6 (Homo sapiens, UniProt P20813); assay type: in vitro ADME
T2 sequence (P20813 1-491): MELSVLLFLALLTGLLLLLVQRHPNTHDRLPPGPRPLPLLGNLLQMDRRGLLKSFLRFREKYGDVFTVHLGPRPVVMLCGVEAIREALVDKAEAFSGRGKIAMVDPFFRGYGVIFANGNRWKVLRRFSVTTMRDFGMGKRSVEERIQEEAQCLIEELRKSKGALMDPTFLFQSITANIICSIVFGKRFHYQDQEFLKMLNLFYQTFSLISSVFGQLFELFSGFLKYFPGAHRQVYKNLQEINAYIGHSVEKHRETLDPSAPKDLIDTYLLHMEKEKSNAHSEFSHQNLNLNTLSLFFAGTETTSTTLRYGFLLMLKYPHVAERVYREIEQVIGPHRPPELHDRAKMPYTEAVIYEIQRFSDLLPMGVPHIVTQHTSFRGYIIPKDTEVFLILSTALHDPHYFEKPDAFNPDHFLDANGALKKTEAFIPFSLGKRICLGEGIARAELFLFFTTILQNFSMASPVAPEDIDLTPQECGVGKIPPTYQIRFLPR

[8] = test system: liver microsomes of human sample HH2; assay: Oxidation of flavonoids by human liver microsomes, sample HH2; assay type: in vitro ADME
[9] = rats, oral or intraperitoneal administration; ref Das and Griffiths (1966); cited from earlier work
[10] = biological target: T1, CYP2A6; assay: Oxidation of flavonoids by reconstituted recombinant P450, LC-MS/MS

Chain of CYP2C9 (P11712 whole entry): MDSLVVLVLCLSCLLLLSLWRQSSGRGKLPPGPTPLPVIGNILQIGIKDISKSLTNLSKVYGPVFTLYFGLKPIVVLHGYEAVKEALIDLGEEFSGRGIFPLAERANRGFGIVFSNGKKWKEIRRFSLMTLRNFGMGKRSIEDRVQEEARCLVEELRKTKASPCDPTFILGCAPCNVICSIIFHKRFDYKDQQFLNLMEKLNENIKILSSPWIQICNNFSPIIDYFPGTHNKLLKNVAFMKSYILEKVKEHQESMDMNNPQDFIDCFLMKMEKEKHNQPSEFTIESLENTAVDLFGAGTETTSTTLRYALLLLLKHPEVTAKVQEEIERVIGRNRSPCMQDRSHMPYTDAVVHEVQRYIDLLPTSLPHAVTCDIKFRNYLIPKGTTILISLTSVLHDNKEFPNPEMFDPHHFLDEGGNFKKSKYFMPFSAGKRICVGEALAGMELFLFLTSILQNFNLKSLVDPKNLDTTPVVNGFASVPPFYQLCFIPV
Chain of CYP3A4 (P08684 whole entry): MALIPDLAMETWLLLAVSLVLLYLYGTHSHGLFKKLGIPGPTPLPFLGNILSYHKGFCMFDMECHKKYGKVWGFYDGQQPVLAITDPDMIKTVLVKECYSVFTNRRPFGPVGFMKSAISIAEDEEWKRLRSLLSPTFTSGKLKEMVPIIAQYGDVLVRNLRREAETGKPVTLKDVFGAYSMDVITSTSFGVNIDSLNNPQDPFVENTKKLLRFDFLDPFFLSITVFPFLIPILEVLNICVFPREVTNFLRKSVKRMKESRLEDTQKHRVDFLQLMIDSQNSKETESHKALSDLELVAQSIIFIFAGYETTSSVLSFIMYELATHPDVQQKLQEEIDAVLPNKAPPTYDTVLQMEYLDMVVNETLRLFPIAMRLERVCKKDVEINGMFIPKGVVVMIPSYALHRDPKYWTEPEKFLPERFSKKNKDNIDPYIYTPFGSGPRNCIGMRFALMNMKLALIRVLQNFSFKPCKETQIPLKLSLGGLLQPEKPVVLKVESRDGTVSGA

- rate of O-demethylation to form M2 (4´OHF) [1]: 0.029 min⁻¹
- rate of formation of M1 (3´4´diOHF) [1]: 0.0004 min^1
Compound: COc1ccc(-c2cc(=O)c3ccccc3o2)cc1 [4´MeF, 4´-methoxyflavone]

- inhibition at 20 min [2]: 65%
Compound: O=c1cc(-c2ccccc2)oc2c1ccc1ccccc12 [ANF, α-naphthoflavone]
- inhibition of formation of OHFM5, OHFM7, 6OHF, and OHFM12 [3]: inhibited

- inhibition at 20 min [2]: 75%
Compound: O=c1ccc2ccccc2o1 [coumarin]
- inhibition of formation of OHFM6 and OHFM9 [3]: strongly inhibited

- activity in oxidizing flavone [4]: not very active
- activity in oxidizing flavone [6]: not very active
- activity in oxidizing flavone [7]: not very active
- production of OHFM6, OHFM9, and diOHFM4 [8]: very little
- activity in oxidizing to OHFM6 (4´OHF) and OHFM9 (3´OHF) [10]: highly active
Compound: O=c1cc(-c2ccccc2)oc2ccccc12 [flavone]
- urinary excretion of 4´OHF ([5]; first day): 622 µg
- urinary excretion of 4´OHF ([5]; fourth day): 0 µg
- urinary excretion of 4´OHF ([5]; second day): 309 µg
- urinary excretion of 4´OHF ([5]; third day): 15 µg
- 3´4´diOHF found in urine [9]: small amounts
